In patent US11208400B2, “Substituted 6-(1H-pyrazol-1-yl)pyrimidin-4-amine derivatives and uses thereof” (Bayer Aktiengesellschaft, priority 2016, dated 2021) one finds IC50 data, which are given here for 26 molecules.

Where a name gives a salt, the structure may show the parent alone.

This experiment has as its target T1, human Npt2a (Homo sapiens, UniProt Q06495).
T1 construct: expressed in transfected cells
T1 sequence (Q06495 1-639): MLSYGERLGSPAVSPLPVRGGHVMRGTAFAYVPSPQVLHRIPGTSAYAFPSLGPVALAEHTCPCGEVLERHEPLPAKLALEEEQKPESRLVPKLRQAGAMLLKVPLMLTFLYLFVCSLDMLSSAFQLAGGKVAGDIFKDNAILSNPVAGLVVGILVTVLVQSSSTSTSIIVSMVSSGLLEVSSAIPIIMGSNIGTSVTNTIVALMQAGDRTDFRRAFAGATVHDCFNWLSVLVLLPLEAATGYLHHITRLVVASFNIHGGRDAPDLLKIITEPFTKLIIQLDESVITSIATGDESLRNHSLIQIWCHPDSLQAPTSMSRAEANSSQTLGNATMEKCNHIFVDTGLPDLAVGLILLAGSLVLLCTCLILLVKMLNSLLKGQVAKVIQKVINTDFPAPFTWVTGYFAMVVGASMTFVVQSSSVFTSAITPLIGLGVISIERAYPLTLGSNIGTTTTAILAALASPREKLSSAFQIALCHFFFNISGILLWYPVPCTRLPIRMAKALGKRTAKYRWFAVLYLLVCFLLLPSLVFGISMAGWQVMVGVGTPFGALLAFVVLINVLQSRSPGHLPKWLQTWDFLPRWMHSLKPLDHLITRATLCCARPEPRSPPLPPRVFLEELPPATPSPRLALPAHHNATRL
The experiment is described as follows: Npt2a activity cell based assay, membrane potential dye, CHO T-REx hNpt2a cells. The following applies: doxycycline-induced, depolarization by sodium phosphate influx, average or median values if tested more than once. The essentials: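 Cells were doxycycline-induced CHO T-REx hNpt2a, dye-loaded and pretreated 5 min at RT with 1 nM–50 μM compound in Na-free pH 7.4 buffer. IC50 was fit to the post/pre-trigger fluorescence ratio.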
On to `Cc1cc(C(F)F)n(-c2cc(Nc3c(C)c(-c4ccc(C(F)(F)F)nc4)nn3CC3CC3)ncn2)n1` [Example 532, N-{1-(cyclopropylmethyl)-4-methyl-3-[6-(trifluoromethyl)pyridin-3-yl]-1H-pyrazol-5-yl}-6-[5-(difluoromethyl)-3-methyl-1H-pyrazol-1-yl]pyrimidin-4-amine], for which it took 2.8 µM to reach half-maximal inhibition (IC50).

In the case of `CCc1c(Nc2cc(-n3nc(C)cc3C)ncn2)n[nH]c1-c1ccc(F)cc1F` [Example 9, N-[5-(2,4-difluorophenyl)-4-ethyl-1H-pyrazol-3-yl]-6-(3,5-dimethyl-1H-pyrazol-1-yl)pyrimidin-4-amine], the half-maximal inhibitory concentration (IC50) (usually the concentration that gives 50% inhibition) was determined as 0.04 µM.

Molecule `COCCn1nc(-c2ccc(C#N)cc2)c(C)c1Nc1cc(-n2nc(C)cc2C(F)F)ncn1` [Example 554, 4-[5-({6-[5-(difluoromethyl)-3-methyl-1H-pyrazol-1-yl]pyrimidin-4-yl}amino)-1-(2-methoxyethyl)-4-methyl-1H-pyrazol-3-yl]benzonitrile] yielded an IC50 of 0.0019 µM.

As to `Cc1nn(-c2cc(Nc3nn(C)c(-c4ccc(F)cc4)c3C)ncn2)c(C)c1Cl` [Example 67, 6-(4-chloro-3,5-dimethyl-1H-pyrazol-1-yl)-N-[5-(4-fluorophenyl)-1,4-dimethyl-1H-pyrazol-3-yl]pyrimidin-4-amine], half-maximal inhibition (IC50) required 0.00345 µM.

On to `COC(C)c1c(C)nn(-c2cc(Nc3nn(C)c(-c4ccc(F)cc4)c3C)ncn2)c1C` (single isomer, unassigned) [Example 344, N-[5-(4-fluorophenyl)-1,4-dimethyl-1H-pyrazol-3-yl]-6-{4-[1-methoxyethyl]-3,5-dimethyl-1H-pyrazol-1-yl}pyrimidin-4-amine], for which inhibition was half-maximal at 0.005 µM (IC50).

As for `CCc1c(Nc2cc(-n3ncc4c3CCC4)ncn2)n[nH]c1-c1ccc(F)cc1` [Example 27, 6-(5,6-dihydrocyclopenta[c]pyrazol-1 (4H)-yl)-N-[4-ethyl-5-(4-fluorophenyl)-1H-pyrazol-3-yl]pyrimidin-4-amine], half-maximal inhibition (IC50) was put at 0.46 µM.

Regarding `COc1c(-c2ccc(C#N)cc2)nn(C)c1Nc1cc(-n2nc(C)c(CC(C)(C)O)c2C)ncn1` [Example 428, 4-[5-({6-[4-(2-hydroxy-2-methylpropyl)-3,5-dimethyl-1H-pyrazol-1-yl]pyrimidin-4-yl}amino)-4-methoxy-1-methyl-1H-pyrazol-3-yl]benzonitrile], the midpoint of inhibition, the IC50, lay at 0.55 µM.

Consider `CCc1c(Nc2cc(-n3cccn3)ncn2)nn(C)c1-c1ccc(F)cc1` [Example 245, N-[4-ethyl-5-(4-fluorophenyl)-1-methyl-1H-pyrazol-3-yl]-6-(1H-pyrazol-1-yl)pyrimidin-4-amine], for which half-maximal inhibition (IC50) required 0.66 µM.

The molecule `CCOC(=O)c1c(C)nn(-c2cc(Nc3n[nH]c(-c4ccc(F)cc4)c3C)ncn2)c1C` [Example 60, ethyl 1-(6-{[5-(4-fluorophenyl)-4-methyl-1H-pyrazol-3-yl]amino}pyrimidin-4-yl)-3,5-dimethyl-1H-pyrazole-4-carboxylate] showed a concentration for half-maximal inhibition (IC50) of 0.043 µM.

As for `CC(=O)c1c(C)nn(-c2cc(Nc3c(C)c(-c4ccc(F)cc4)nn3CC3CC3)ncn2)c1C` [Example 502, 1-[1-(6-{[1-(cyclopropylmethyl)-3-(4-fluorophenyl)-4-methyl-1H-pyrazol-5-yl]amino}pyrimidin-4-yl)-3,5-dimethyl-1H-pyrazol-4-yl]ethanone], the half-inhibitory concentration (IC50) was 0.005 µM.

In turn, `CCOC(=O)c1cc(C)n(-c2cc(Nc3nn(C)c(-c4ccc(F)cc4)c3CC)ncn2)n1` [Example 83, ethyl 1-(6-{[4-ethyl-5-(4-fluorophenyl)-1-methyl-1H-pyrazol-3-yl]amino}pyrimidin-4-yl)-5-methyl-1H-pyrazole-3-carboxylate] displayed an IC50 of 1.3 µM.

The molecule `CCc1c(Nc2cc(-n3nc(C)c(Cl)c3C(F)F)ncn2)nn(C)c1-c1ccc(F)cc1` [Example 270, 6-[4-chloro-5-(difluoromethyl)-3-methyl-1H-pyrazol-1-yl]-N-[4-ethyl-5-(4-fluorophenyl)-1-methyl-1H-pyrazol-3-yl]pyrimidin-4-amine] registered a concentration for half-maximal inhibition (IC50) of 0.012 µM.

Molecule `Cc1nn(-c2cc(Nc3c(C)c(-c4ccc(F)cc4)nn3CC3CC3)ncn2)c(C)c1N` [Example 484, 6-(4-amino-3,5-dimethyl-1H-pyrazol-1-yl)-N-[1-(cyclopropylmethyl)-3-(4-fluorophenyl)-4-methyl-1H-pyrazol-5-yl]pyrimidin-4-amine trifluoroacetate] returned an IC50 of 0.036 µM.

`Cc1nn(-c2cc(Nc3nn(C)c(-c4ccc(F)cc4)c3C3CC3)ncn2)c(C)c1Cl` [Example 42, 6-(4-chloro-3,5-dimethyl-1H-pyrazol-1-yl)-N-[4-cyclopropyl-5-(4-fluorophenyl)-1-methyl-1H-pyrazol-3-yl]pyrimidin-4-amine] had an IC50 of 0.00767 µM.

In turn, `Cc1nn(-c2cc(Nc3c(C)c(-c4ccc(C#N)cc4)nn3C)ncn2)c(C)c1Cl` [Example 201, 4-(5-{[6-(4-chloro-3,5-dimethyl-1H-pyrazol-1-yl)pyrimidin-4-yl]amino}-1,4-dimethyl-1H-pyrazol-3-yl)benzonitrile] had an IC50 of 0.006 µM.

On to `COc1c(C)nn(-c2cc(Nc3c(C)nn(-c4ccc(F)cc4)c3C)ncn2)c1C` [Example 463, N-[1-(4-fluorophenyl)-3,5-dimethyl-1H-pyrazol-4-yl]-6-(4-methoxy-3,5-dimethyl-1H-pyrazol-1-yl)pyrimidin-4-amine], for which it took 0.034 µM to reach half-maximal inhibition (IC50).

For the molecule `Cc1nn(-c2cc(Nc3c(C)c(-c4ccc(F)cc4)nn3CC3CC3)ncn2)c(C)c1C#N` [Example 288, 1-(6-{[1-(cyclopropylmethyl)-3-(4-fluorophenyl)-4-methyl-1H-pyrazol-5-yl]amino}pyrimidin-4-yl)-3,5-dimethyl-1H-pyrazole-4-carbonitrile], the IC50 stood at 0.016 µM.

In turn, `Cc1nn(-c2cc(Nc3c(C)c(-c4ccc(F)cc4)nn3CC3CC3)ncn2)c(C)c1C(O)C1CC1` (racemic) [Example 405, (±)-cyclopropyl[1-(6-{[1-(cyclopropylmethyl)-3-(4-fluorophenyl)-4-methyl-1H-pyrazol-5-yl]amino}pyrimidin-4-yl)-3,5-dimethyl-1H-pyrazol-4-yl]methanol] registered a 50% inhibitory concentration (IC50) of 0.014 µM.

For `COc1c(Nc2cc(-n3nc(C)c(Cl)c3C)ncn2)nn(C)c1-c1ccc(C#N)cc1` [Example 540, 4-(3-{[6-(4-chloro-3,5-dimethyl-1H-pyrazol-1-yl)pyrimidin-4-yl]amino}-4-methoxy-1-methyl-1H-pyrazol-5-yl)benzonitrile], the IC50 came to 0.017 µM.

With `Cc1cc(C)n(-c2cc(Nc3c(C)c(-c4ccc(C#N)cc4)nn3CC3CC3)ncn2)n1` [Example 141, 4-[1-(cyclopropylmethyl)-5-{[6-(3,5-dimethyl-1H-pyrazol-1-yl)pyrimidin-4-yl]amino}-4-methyl-1H-pyrazol-3-yl]benzonitrile], inhibition was half-maximal at 0.003 µM (IC50).

The molecule `Cc1nn(-c2cc(Nc3c(C)c(-c4ccc(C#N)cc4)nn3CC3CC3)ncn2)c(C)c1C(C)O` (racemic) [Example 341, (±)-4-{1-(cyclopropylmethyl)-5-[(6-{4-[1-hydroxyethyl]-3,5-dimethyl-1H-pyrazol-1-yl}pyrimidin-4-yl)amino]-4-methyl-1H-pyrazol-3-yl}benzonitrile] showed a concentration for half-maximal inhibition (IC50) of 0.017 µM.

`Cc1cc(C(F)F)n(-c2cc(Nc3nn(C)c(-c4ccc(F)cc4)c3OC(F)F)ncn2)n1` [Example 412, N-[4-(difluoromethoxy)-5-(4-fluorophenyl)-1-methyl-1H-pyrazol-3-yl]-6-[5-(difluoromethyl)-3-methyl-1H-pyrazol-1-yl]pyrimidin-4-amine] came in with an IC50 of 0.012 µM.

`CCc1c(-c2ccc(F)cc2)nn(C)c1Nc1cc(-n2nc(C)cc2C)ncn1` [Example 12, 6-(3,5-dimethyl-1H-pyrazol-1-yl)-N-[4-ethyl-3-(4-fluorophenyl)-1-methyl-1H-pyrazol-5-yl]pyrimidin-4-amine]: the half-inhibitory concentration (IC50) was found to be 0.05 µM.

Molecule `Cc1nn(-c2cc(Nc3c(C)c(-c4ccc(C#N)cc4)nn3CC3CC3)ncn2)c(C)c1C(C)(O)C(F)(F)F` (racemic) [Example 322, (±)-4-{1-(cyclopropylmethyl)-5-[(6-{3,5-dimethyl-4-[(2S)-1,1,1-trifluoro-2-hydroxypropan-2-yl]-1H-pyrazol-1-yl}pyrimidin-4-yl)amino]-4-methyl-1H-pyrazol-3-yl}benzonitrile (Racemate)] had an IC50 of 0.004 µM.

In turn, `Cc1nn(-c2cc(Nc3c(C)c(-c4ccc(F)cc4)nn3CC3CC3)ncn2)c(C)c1C(C)O` (racemic) [Example 249, (±)-1-[1-(6-{[1-(cyclopropylmethyl)-3-(4-fluorophenyl)-4-methyl-1H-pyrazol-5-yl]amino}pyrimidin-4-yl)-3,5-dimethyl-1H-pyrazol-4-yl]ethanol] returned an IC50 of 0.022 µM.

The molecule `CCc1c(-c2ccc(F)cc2)nn(CC(F)F)c1Nc1cc(-n2nc(C)cc2C)ncn1` [Example 162, N-[1-(2,2-difluoroethyl)-4-ethyl-3-(4-fluorophenyl)-1H-pyrazol-5-yl]-6-(3,5-dimethyl-1H-pyrazol-1-yl)pyrimidin-4-amine] had an IC50 of 0.097 µM.
